Measured values from PubChem BioAssay (NCI).
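These data come from cells grown in 96-well plates and exposed to compound for 48 hours at five concentrations. GI50 marks 50% less growth. TGI is the concentration that stops growth completely.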

What was measured:
Assay in all cases: inhibition of tumour cell growth, NCI panel, 48 h
NCI-H226 lung = tested on: NCI-H226 lung
NCI-H23 lung = tested on: NCI-H23 lung
NCI-H460 lung = tested on: NCI-H460 lung
NCI-H522 lung = tested on: NCI-H522 lung
NCI/ADR-RES ovarian = tested on: NCI/ADR-RES ovarian
OVCAR-3 ovarian = tested on: OVCAR-3 ovarian
OVCAR-4 ovarian = tested on: OVCAR-4 ovarian
OVCAR-5 ovarian = tested on: OVCAR-5 ovarian
OVCAR-8 ovarian = tested on: OVCAR-8 ovarian
PC-3 prostate = tested on: PC-3 prostate
RPMI-8226 leukemia = tested on: RPMI-8226 leukemia
RXF 393 renal = tested on: RXF 393 renal
SF-268 CNS = tested on: SF-268 CNS
SF-295 CNS = tested on: SF-295 CNS
SF-539 CNS = tested on: SF-539 CNS
SK-MEL-2 melanoma = tested on: SK-MEL-2 melanoma
SK-MEL-28 melanoma = tested on: SK-MEL-28 melanoma
SK-MEL-5 melanoma = tested on: SK-MEL-5 melanoma
SK-OV-3 ovarian = tested on: SK-OV-3 ovarian
SN12C renal = tested on: SN12C renal
SNB-19 CNS = tested on: SNB-19 CNS
SNB-75 CNS = tested on: SNB-75 CNS
SW-620 colon = tested on: SW-620 colon
T-47D breast = tested on: T-47D breast
TK-10 renal = tested on: TK-10 renal
U251 CNS = tested on: U251 CNS
UACC-257 melanoma = tested on: UACC-257 melanoma
UACC-62 melanoma = tested on: UACC-62 melanoma
UO-31 renal = tested on: UO-31 renal

C=C1CCC2C3(C)COC(c4ccco4)OC3CCC2(C)C1CC(Sc1ccccc1)C1=CCOC1=O (stereo not drawn)
GI50 (NCI-H226 lung): 6.22 µM | TGI (NCI-H226 lung): 62.6 µM | GI50 (NCI-H23 lung): 21.5 µM | TGI (NCI-H23 lung): 88.9 µM | GI50 (NCI-H460 lung): 21.7 µM | TGI (NCI-H460 lung): > 100 µM | GI50 (NCI-H522 lung): 7.51 µM | TGI (NCI-H522 lung): 20.4 µM | GI50 (NCI/ADR-RES ovarian): 2.6 µM | TGI (NCI/ADR-RES ovarian): 6.95 µM | GI50 (OVCAR-3 ovarian): 3.78 µM | TGI (OVCAR-3 ovarian): 12.5 µM | GI50 (OVCAR-4 ovarian): 14.7 µM | TGI (OVCAR-4 ovarian): > 100 µM | GI50 (OVCAR-5 ovarian): 21.7 µM | TGI (OVCAR-5 ovarian): 91 µM | GI50 (OVCAR-8 ovarian): 3.05 µM | TGI (OVCAR-8 ovarian): 14.3 µM | GI50 (PC-3 prostate): 6.71 µM | TGI (PC-3 prostate): > 100 µM | GI50 (RPMI-8226 leukemia): 2.36 µM | TGI (RPMI-8226 leukemia): 8.23 µM | GI50 (RXF 393 renal): 8.05 µM | TGI (RXF 393 renal): 49.1 µM | GI50 (SF-268 CNS): 59.5 µM | TGI (SF-268 CNS): > 100 µM | GI50 (SF-295 CNS): 25.7 µM | TGI (SF-295 CNS): > 100 µM | GI50 (SF-539 CNS): 4.12 µM | TGI (SF-539 CNS): 15.6 µM | GI50 (SK-MEL-2 melanoma): 7.3 µM | TGI (SK-MEL-2 melanoma): 22 µM | GI50 (SK-MEL-28 melanoma): 28.5 µM | TGI (SK-MEL-28 melanoma): > 100 µM | GI50 (SK-MEL-5 melanoma): 10.8 µM | TGI (SK-MEL-5 melanoma): 22.9 µM | GI50 (SK-OV-3 ovarian): 80.1 µM | TGI (SK-OV-3 ovarian): > 100 µM | GI50 (SN12C renal): 9.46 µM | TGI (SN12C renal): > 100 µM | GI50 (SNB-19 CNS): 42.3 µM | TGI (SNB-19 CNS): > 100 µM | GI50 (SNB-75 CNS): 8.98 µM | TGI (SNB-75 CNS): > 100 µM | GI50 (SW-620 colon): 3.43 µM | TGI (SW-620 colon): 15 µM | GI50 (T-47D breast): 14.4 µM | TGI (T-47D breast): > 100 µM | GI50 (TK-10 renal): 97.7 µM | TGI (TK-10 renal): > 100 µM | GI50 (U251 CNS): 5.88 µM | TGI (U251 CNS): 20.3 µM | GI50 (UACC-257 melanoma): 21.9 µM | TGI (UACC-257 melanoma): > 100 µM | GI50 (UACC-62 melanoma): 12.4 µM | TGI (UACC-62 melanoma): 31.8 µM | GI50 (UO-31 renal): 13.4 µM | TGI (UO-31 renal): > 100 µM
